Source: US8940720B2, “Macrocycles as factor XIa inhibitors” (Bristol-Myers Squibb Company, priority 2010, dated 2015)
pKi: −log10 of the molar value. Structures can show the parent of a compound that is named as a salt.

biological target: purified human Factor XIa (Homo sapiens (Human), UniProt P03951); test: Factor XIa enzyme inhibition assay (chromogenic substrate S-2366); assay type: biochemical; settings: substrate S-2366, pH 7.4
Experimental: The effectiveness of compounds of the present invention as inhibitors of the coagulation Factors XIa, VIIa, IXa, Xa, XIIa, plasma kallikrein or thrombin, can be determined using a relevant purified serine protease, respectively, and an appropriate synthetic substrate. The rate of hydrolysis of the chromogenic or fluorogenic substrate by the relevant serine protease was measured both in the absence and presence of compounds of the present invention. […] A decrease in the rate of absorbance or fluorescence change in the presence of inhibitor is indicative of enzyme inhibition. Such methods are known to one skilled in the art. The results of this assay are expressed as the inhibitory constant, Ki.
Values of Ki were determined by allowing the protease to react with the substrate in the presence of the inhibitor. Reactions were allowed to go for periods of 20-180 minutes (depending on the protease) and the velocities (rate of absorbance or fluorescence change versus time) were measured. The following relationships were used to calculate Ki values: (vo−vs)/vs=I/(Ki(1+S/Km)) for a competitive inhibitor with one binding site; or vs/vo=A+((B−A)/1+((IC50/(I)n))); and Ki=IC50/(1+S/Km) for a competitive inhibitor where: […]

Chain of purified human Factor XIa (P03951 388-625): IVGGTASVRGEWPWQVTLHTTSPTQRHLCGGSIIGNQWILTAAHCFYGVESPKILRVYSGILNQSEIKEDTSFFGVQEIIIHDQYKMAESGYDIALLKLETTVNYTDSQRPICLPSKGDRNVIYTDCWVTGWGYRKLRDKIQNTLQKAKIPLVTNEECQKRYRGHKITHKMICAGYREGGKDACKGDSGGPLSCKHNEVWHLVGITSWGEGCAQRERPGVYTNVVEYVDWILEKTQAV
Chain of purified human Factor XIa (P03951 19-387 partner): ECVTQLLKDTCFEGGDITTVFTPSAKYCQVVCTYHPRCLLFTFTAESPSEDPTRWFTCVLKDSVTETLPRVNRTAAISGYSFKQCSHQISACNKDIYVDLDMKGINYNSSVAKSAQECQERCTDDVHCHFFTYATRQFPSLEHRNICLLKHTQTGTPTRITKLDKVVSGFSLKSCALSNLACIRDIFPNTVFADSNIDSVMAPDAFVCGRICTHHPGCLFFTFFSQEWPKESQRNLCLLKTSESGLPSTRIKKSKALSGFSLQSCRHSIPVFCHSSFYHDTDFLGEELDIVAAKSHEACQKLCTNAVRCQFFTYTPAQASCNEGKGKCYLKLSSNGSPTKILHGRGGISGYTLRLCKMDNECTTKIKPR

Row | pKi | SMILES
1 | 6.51 | COC(=O)Nc1ccc2c(c1)NC(=O)CCCC[C@H](NC(=O)c1ccc3c(c1)CCCN3)c1nc-2c[nH]1 [Example I-13]
2 | 5.53 | COC(=O)Nc1ccc2c(c1)NC(=O)CCCC[C@H](NC(=O)c1ccc3ncccc3c1)c1nc-2c[nH]1 [Example I-14]
3 | 6.45 | COC(=O)Nc1ccc2c(c1)NC(=O)CCCC[C@H](NC(=O)c1cccc3ccccc13)c1nc-2c[nH]1 [Example I-17]
4 | > 8.30 | COC(=O)Nc1ccc2c(c1)NC(=O)CCCC[C@H](NC(=O)c1c(F)cc3c(ncn3C)c1F)c1nc-2c(F)[nH]1 [Example I-21]
5 | 8.18 | COC(=O)Nc1ccc2c(c1)NC(=O)C(C)CCC[C@H](NC(=O)c1c(F)cc3c(ncn3C)c1F)c1nc-2c(Cl)[nH]1 (stereo partly shown) [Example I-57]
6 | > 8.30 | COC(=O)Nc1ccc2c(c1)NC(=O)C(C)CCC[C@H](NC(=O)c1c(F)cc3c(ccn3C)c1F)c1nc-2c(Cl)[nH]1 (stereo partly shown) [Example I-59]
7 | 6.21 | COC(=O)Nc1ccc2c(c1)N[C@@H](C(F)(F)F)CCCC[C@H](NC(=O)/C=C/c1cc(Cl)ccc1-n1cnnn1)c1nc-2c(Cl)[nH]1 [Example I-60]
8 | 6.69 | CCOC(=O)[C@@H]1CCCC[C@H](NC(=O)/C=C/c2cc(Cl)ccc2-n2cnnn2)c2nc(c[nH]2)-c2ccc(NC(=O)OC)cc2N1 [Example I-67, (9S,14S)-14-[(E)-3-(5-Chloro-2-tetrazol-1-yl-phenyl)-acryloylamino]-5-methoxycarbonylamino-8,16,18-triaza-tricyclo[13.2.1.0^2,7]octadeca-1(17),2,4,6,15(18)-pentaene-9-carboxylic acid ethyl ester, 2 TFA salt]
9 | 6.57 | COC(=O)Nc1ccc2c(c1)N[C@@H](C(F)(F)F)CCCC[C@H](NC(=O)/C=C/c1cc(Cl)ccc1-n1cnnn1)c1nc-2c(C)[nH]1 [Example I-70]
10 | > 8.30 | COC(=O)Nc1ccc2c(c1)N[C@@H](CO)CCCC[C@H](NC(=O)/C=C/c1cc(Cl)ccc1-n1cnnn1)c1nc-2c[nH]1 [Example I-77, {(9R,14S)-14-[(E)-3-(5-Chloro-2-tetrazol-1-yl-phenyl)-acryloylamino]-9-hydroxymethyl-8,16,18-triaza-tricyclo[13.2.1.0^2,7]octadeca-1(17),2,4,6,15(18)-pentaen-5-yl}-carbamic acid methyl ester, 2 TFA salt]
11 | 6.36 | COC(=O)Nc1ccc2c(c1)NC(C(=O)OC)(C(F)(F)F)CCCC[C@H](NC(=O)/C=C/c1cc(Cl)ccc1-n1cnnn1)c1nc-2c[nH]1 (stereo partly shown) [Example I-104]
12 | 5.41 | COC(=O)Nc1ccc2c(c1)N(C(=O)OC)CCCCC[C@H](NC(=O)/C=C/c1cc(Cl)ccc1-n1cnnn1)c1nc-2c[nH]1 [Example I-108]
13 | 6.53 | COC(=O)Nc1ccc2c(c1)NC(C(N)=O)C(C)CCC[C@H](NC(=O)/C=C/c1cc(Cl)ccc1-n1cnnn1)c1nc-2c[nH]1 (stereo partly shown) [Example I-114]
14 | > 8.30 | COC(=O)Nc1ccc2c(c1)NCCCCC[C@H](NC(=O)/C=C/c1cc(Cl)ccc1-n1cnnn1)c1nc-2c(C#N)[nH]1 [Example I-115, {(S)-14-[(E)-3-(5-Chloro-2-tetrazol-1-yl-phenyl)-acryloylamino]-17-cyano-8,16,18-triaza-tricyclo[13.2.1.0^2,7]octadeca-1(17),2,4,6,15(18)-pentaen-5-yl}-carbamic acid methyl ester, 2 TFA salt]
15 | 6.13 | CCOC(=O)CN1CCCC[C@H](NC(=O)/C=C/c2cc(Cl)ccc2-n2cnnn2)c2nc(c[nH]2)-c2ccc(NC(=O)OC)cc2C1 [Example I-121]

Row | SMILES | pKi
16 | COC(=O)Nc1ccc2c(c1)/N=C/CCCC[C@H](NC(=O)/C=C/c1cc(Cl)ccc1-n1cnnn1)c1nc-2c(F)[nH]1 [Example I-107, {(E)-(S)-14-[(E)-3-(5-Chloro-2-tetrazol-1-yl-phenyl)-acryloylamino]-17-fluoro-8,16,18-triaza-tricyclo[13.2.1.0^2,7]octadeca-1(17),2,4,6,8,15(18)-hexaen-5-yl}-carbamic acid methyl ester, trifluoroacetic acid salt] | 7.54
